Data: patent publication US10189845B2, “4,6-substituted-pyrazolo[1,5-a]pyrazines as janus kinase inhibitors” (ARRAY BIOPHARMA INC., priority 2014, dated 2019)
Where a name gives a salt, the structure may show the parent alone. Read-outs that look alike come from different tables or passages of the source.

Columns and labels:
Format in all cases: biochemical
JAK1 = JAK1 (Homo sapiens (Human), UniProt P23458); test: JAK1 Inhibition Assay (Example B, Omnia kinase fluorescence peptide substrate assay)
In short: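 Kinetic fluorescence read (360 nm excitation, 485 nm emission, every 50 s over 45 min) of Omnia Y12 peptide (8 μM) phosphorylation by 12.5 nM human JAK1 at 1 mM ATP. Buffer: HEPES pH 7.4, MgCl2, Triton X-100, DTT; 2% DMSO. IC50 = concentration giving 50 POC on logistic curve.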

JAK2 = JAK2 (Homo sapiens (Human), UniProt O60674); test: JAK2 Inhibition Assay (Example C, Omnia kinase fluorescence peptide substrate assay); details: JAK2 Enzyme IC50 1 mM ATP, averaged IC50 ranges
Source text: The assays described in Examples A, B, C and D for the determination of Tyk2, JAK1, JAK2 and JAK3 kinase activity, respectively, utilized the Omnia® Kinase fluorescence peptide substrate-based technology (Invitrogen). The specific components of the assay mixture are described in Examples A, B, C and D. In these assays, Mg^2+ is chelated upon phosphorylation of the Omnia peptide by the kinase to form a bridge between the chelation-enhanced fluorophore Sox and the phosphate, resulting in an increase in fluorescence emission at 485 nm when excited at […]. The reactions were therefore read at excitation 360 nm and emission was measured at 485 nm every 50 seconds for 45 minutes using a PerkinElmer EnVision Multilabel Plate Reader.
The final buffer conditions for Tyk2, JAK1, JAK2, and JAK3 assays were as follows: 25 mM HEPES, pH 7.4, 10 mM MgCl2, 0.01% Triton X-100 and 1 mM DTT.
Two-μL aliquots of these were transferred to a fresh plate for a ten-fold intermediate dilution with assay buffer. Five-μL aliquots of the diluted compounds were then transferred to 20-μL of assay mixtures described in Examples A, B, C and D for a final concentration of DMSO of 2%. […] For each plate, percent of control (POC) values were calculated for each well according to the following equation: […]
IC50's were estimated from the POC's using a standard 4-parameter logistic model:
The IC50 is defined as the concentration of inhibitor at which the POC equals 50 for the fitted curve.
Compounds of Formula I were screened for their ability to inhibit JAK2 using the general enzyme inhibition assay method, in which the assay mixture contained 1 mM ATP, 10 μM Omnia® Y7 peptide (Catalog # IVGN KNZ3071C, Invitrogen Corporation, Carlsbad, Calif.) and 4 nM JAK2 in a total volume of 25 μL. JAK2 was purchased from Invitrogen Corporation, Carlsbad, Calif. (catalog # IVGN PV4288).

Human Tyk2 kinase domain = Human Tyk2 kinase domain (Homo sapiens (Human), UniProt P29597); test: Tyk2 Inhibition Assay (Example A, Omnia kinase fluorescence peptide substrate assay); details: TYK2 Enzyme IC50 1 mM ATP, averaged IC50 ranges
In short: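 IC50 values come from a 4-parameter logistic fit of percent-of-control data, with compounds at 2% final DMSO. Reactions held 1 nM His-tag-cleaved Tyk2 (aa 886–1187), 8 μM Omnia Y12 peptide and 1 mM ATP in pH 7.4 HEPES buffer with 10 mM MgCl2, Triton X-100 and DTT. Sox fluorescence (360/485 nm) was monitored kinetically over 45 min.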

JAK3 = JAK3 (Homo sapiens (Human), UniProt P52333); test: JAK3 Inhibition Assay (Example D, Omnia kinase fluorescence peptide substrate assay)
In short: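 Omnia Sox-peptide kinetic read (ex 360 nm, em 485 nm, every 50 s over 45 min) tracked phosphorylation of 10 μM Y7 peptide by 2 nM recombinant JAK3 at 1 mM ATP. Buffer: 25 mM HEPES pH 7.4, 10 mM MgCl2, 0.01% Triton X-100, 1 mM DTT, with 2% DMSO final.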

Chain of Human Tyk2 kinase domain (P29597 886-1187): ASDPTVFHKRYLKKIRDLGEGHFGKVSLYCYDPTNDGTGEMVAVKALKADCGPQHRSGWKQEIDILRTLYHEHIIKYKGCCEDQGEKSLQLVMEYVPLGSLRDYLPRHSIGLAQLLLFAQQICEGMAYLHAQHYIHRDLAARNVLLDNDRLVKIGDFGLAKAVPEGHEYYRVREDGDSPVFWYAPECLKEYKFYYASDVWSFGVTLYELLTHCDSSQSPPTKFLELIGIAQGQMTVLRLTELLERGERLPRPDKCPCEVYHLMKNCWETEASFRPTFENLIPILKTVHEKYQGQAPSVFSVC
Chain of JAK3 (P52333 whole entry): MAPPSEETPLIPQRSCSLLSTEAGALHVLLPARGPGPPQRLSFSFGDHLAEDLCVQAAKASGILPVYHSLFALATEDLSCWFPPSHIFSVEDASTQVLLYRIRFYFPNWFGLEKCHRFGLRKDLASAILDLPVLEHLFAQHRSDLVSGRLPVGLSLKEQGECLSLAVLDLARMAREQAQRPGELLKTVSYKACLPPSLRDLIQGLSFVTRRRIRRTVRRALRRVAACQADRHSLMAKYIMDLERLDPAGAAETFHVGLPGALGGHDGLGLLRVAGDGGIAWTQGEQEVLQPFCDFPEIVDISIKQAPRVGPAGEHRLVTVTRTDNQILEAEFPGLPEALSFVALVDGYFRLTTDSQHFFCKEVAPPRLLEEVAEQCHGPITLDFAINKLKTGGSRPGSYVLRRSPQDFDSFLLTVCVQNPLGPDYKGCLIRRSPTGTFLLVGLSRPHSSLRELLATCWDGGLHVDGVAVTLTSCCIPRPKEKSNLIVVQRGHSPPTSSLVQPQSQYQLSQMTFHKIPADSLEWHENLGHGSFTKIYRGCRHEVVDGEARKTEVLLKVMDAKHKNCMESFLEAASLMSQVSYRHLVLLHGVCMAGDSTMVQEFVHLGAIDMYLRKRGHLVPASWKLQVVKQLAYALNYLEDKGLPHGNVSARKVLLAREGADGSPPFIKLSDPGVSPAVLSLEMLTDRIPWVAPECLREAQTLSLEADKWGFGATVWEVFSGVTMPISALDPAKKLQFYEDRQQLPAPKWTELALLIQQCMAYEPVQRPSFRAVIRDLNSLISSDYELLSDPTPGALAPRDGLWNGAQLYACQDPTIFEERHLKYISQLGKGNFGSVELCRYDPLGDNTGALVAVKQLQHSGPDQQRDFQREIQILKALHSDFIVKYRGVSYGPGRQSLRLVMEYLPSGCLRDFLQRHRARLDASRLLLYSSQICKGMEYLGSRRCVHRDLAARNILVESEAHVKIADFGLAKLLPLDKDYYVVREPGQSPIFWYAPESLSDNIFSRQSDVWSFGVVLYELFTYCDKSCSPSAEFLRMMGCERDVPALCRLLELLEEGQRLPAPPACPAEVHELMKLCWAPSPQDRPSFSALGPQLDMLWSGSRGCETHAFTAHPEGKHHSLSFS
Chain of JAK1 (P23458 whole entry): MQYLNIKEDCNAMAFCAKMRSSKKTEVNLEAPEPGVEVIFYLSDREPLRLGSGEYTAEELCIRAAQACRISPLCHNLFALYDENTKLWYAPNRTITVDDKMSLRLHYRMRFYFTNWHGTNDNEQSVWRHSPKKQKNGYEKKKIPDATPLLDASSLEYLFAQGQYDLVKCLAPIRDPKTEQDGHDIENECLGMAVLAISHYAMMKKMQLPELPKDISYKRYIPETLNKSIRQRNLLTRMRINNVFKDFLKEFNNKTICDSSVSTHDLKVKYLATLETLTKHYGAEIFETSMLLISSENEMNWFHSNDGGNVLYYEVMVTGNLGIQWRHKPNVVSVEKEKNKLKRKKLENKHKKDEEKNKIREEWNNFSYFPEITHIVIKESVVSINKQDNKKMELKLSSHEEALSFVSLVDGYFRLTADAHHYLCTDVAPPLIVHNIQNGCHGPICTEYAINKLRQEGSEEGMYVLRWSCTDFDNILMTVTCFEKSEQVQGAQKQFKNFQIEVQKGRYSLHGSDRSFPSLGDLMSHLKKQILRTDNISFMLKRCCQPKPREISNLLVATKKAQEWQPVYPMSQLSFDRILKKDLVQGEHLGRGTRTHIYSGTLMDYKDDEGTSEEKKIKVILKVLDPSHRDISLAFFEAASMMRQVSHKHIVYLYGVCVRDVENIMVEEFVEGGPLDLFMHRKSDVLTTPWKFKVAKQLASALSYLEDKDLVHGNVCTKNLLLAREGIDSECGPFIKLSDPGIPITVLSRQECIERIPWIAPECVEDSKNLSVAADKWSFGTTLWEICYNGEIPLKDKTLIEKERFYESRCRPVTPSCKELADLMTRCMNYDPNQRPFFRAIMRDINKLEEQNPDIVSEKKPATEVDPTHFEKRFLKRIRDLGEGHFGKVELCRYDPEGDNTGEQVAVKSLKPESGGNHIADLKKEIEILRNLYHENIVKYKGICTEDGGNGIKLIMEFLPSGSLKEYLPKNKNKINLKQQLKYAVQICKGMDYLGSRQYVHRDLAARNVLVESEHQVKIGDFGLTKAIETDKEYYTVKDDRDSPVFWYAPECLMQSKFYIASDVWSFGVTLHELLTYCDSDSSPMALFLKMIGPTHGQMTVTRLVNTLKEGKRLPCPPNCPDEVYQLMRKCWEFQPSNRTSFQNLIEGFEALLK
Chain of JAK2 (O60674 whole entry): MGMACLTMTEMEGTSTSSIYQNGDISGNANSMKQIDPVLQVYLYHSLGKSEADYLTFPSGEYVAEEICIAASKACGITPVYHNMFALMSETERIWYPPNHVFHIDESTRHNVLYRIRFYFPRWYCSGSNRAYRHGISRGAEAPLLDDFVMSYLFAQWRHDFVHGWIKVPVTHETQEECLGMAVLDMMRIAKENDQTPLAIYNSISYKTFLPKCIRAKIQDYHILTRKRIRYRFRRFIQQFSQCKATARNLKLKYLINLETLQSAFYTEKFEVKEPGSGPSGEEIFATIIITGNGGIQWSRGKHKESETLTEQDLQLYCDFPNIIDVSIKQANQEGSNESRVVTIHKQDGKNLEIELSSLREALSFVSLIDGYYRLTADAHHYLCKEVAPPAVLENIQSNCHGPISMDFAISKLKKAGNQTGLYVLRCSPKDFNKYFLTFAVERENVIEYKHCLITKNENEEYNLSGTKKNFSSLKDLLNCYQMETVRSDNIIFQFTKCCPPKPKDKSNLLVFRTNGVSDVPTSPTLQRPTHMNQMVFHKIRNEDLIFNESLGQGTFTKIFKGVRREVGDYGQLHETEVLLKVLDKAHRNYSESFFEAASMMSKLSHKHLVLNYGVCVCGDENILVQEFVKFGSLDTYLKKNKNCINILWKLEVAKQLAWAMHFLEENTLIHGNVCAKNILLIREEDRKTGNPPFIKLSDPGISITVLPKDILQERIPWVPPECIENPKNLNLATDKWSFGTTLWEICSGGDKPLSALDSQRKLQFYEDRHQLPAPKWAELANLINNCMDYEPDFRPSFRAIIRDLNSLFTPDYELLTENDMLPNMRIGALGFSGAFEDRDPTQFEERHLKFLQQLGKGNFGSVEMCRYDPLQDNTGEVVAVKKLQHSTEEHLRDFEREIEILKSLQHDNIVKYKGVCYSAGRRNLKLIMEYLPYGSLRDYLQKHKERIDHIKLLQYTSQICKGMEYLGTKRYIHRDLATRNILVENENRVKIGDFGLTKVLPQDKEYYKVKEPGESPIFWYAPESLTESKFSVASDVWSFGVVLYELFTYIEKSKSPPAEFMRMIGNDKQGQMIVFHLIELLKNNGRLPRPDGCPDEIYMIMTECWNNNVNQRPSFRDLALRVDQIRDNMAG

SMILES	IC50 (JAK1)	IC50 (JAK2)	IC50 (Human Tyk2 kinase domain)	IC50 (JAK3)	IC50 (JAK1; JAK1 Enzyme IC50 1 mM ATP, 1 mM ATP, averaged IC50 ranges)
CCC(CC)n1cc(-c2nc(-c3cnn(C[C@@H]4CCC(=O)N4)c3)cn3nccc23)cn1 [Example 17, (S)-5-((4-(4-(1-(pentan-3-yl)-1H-pyrazol-4-yl)pyrazolo[1,5-a]pyrazin-6-yl)-1H-pyrazol-1-yl)methyl)pyrrolidin-2-one]	100 to 1000 nM	10 to 100 nM	10 to 100 nM	1000 to 10000 nM	
CCC(CC)n1cc(-c2nc(-c3cnn(C[C@H]4CCC(=O)N4)c3)cn3nccc23)cn1 [Example 18, (R)-5-((4-(4-(1-(pentan-3-yl)-1H-pyrazol-4-yl)pyrazolo[1,5-a]pyrazin-6-yl)-1H-pyrazol-1-yl)methyl)pyrrolidin-2-one]	10 to 100 nM	10 to 100 nM	10 to 100 nM	1000 to 10000 nM	
CCC(CC)n1cc(-c2nc(-c3cnn(CCCO)c3)cn3nccc23)cn1 [Example 19, 3-(4-(4-(1-(pentan-3-yl)-1H-pyrazol-4-yl)pyrazolo[1,5-a]pyrazin-6-yl)-1H-pyrazol-1-yl)propan-1-ol]	1000 to 10000 nM	1000 to 10000 nM	1000 to 10000 nM	1000 to 10000 nM	
CCC(CC)n1cc(-c2nc(-c3cnn(CCO)c3)cn3nccc23)cn1 [Example 20, 2-(4-(4-(l-(pentan-3-yl)-1H-pyrazol-4-yl)pyrazolo[1,5-a]pyrazin-6-yl)-1H-pyrazol-1-yl)ethanol]	10 to 100 nM	10 to 100 nM	10 to 100 nM	1000 to 10000 nM	
CC[C@@H](C)n1cc(-c2nc(-c3cnn(C4CCS(=O)(=O)CC4)c3)cn3nccc23)cn1 [Example 21, (R)-4-(4-(4-(1-(sec-butyl)-1H-pyrazol-4-yl)pyrazolo[1,5-a]pyrazin-6-yl)-1H-pyrazol-1-yl)tetrahydro-2H-thiopyran 1,1-dioxide]	1000 to 10000 nM	10 to 100 nM	100 to 1000 nM	1000 to 10000 nM	
CCC(CC)n1cc(-c2nc(-c3cnn(CCS(C)(=O)=O)c3)cn3nccc23)cn1 [Example 22, 6-(1-(2-(methylsulfonyl)ethyl)-1H-pyrazol-4-yl)-4-(1-(pentan-3-yl)-1H-pyrazol-4-yl)pyrazolo[1,5-a]pyrazine]	100 to 1000 nM	10 to 100 nM	10 to 100 nM	1000 to 10000 nM	
CCC(CC)n1cc(-c2nc(-c3cnn(CCS(=O)(=O)N(C)C)c3)cn3nccc23)cn1 [Example 23, N,N-dimethyl-2-(4-(4-(1-(pentan-3-yl)-1H-pyrazol-4-yl)pyrazolo[1,5-a]pyrazin-6-yl)-1H-pyrazol-1-yl)ethanesulfonamide]	100 to 1000 nM	10 to 100 nM	10 to 100 nM	1000 to 10000 nM	
CCC(CC)n1cc(-c2nc(-c3cnn(C4CCNCC4)c3)cn3nccc23)cn1 [Example 25, 4-(1-(pentan-3-yl)-1H-pyrazol-4-yl)-6-(1-(piperidin-4-yl)-1H-pyrazol-4-yl)pyrazolo[1,5a]pyrazine hydrochloride]	100 to 1000 nM	10 to 100 nM	10 to 100 nM	1000 to 10000 nM	
CC(C)n1cc(-c2nc(-c3cnn(C4CCNCC4)c3)cn3nccc23)cn1 [Example 26, 4-(1-isopropyl-1H-pyrazol-4-yl)-6-(1-(piperidin-4-yl)-1H-pyrazol-4-yl)pyrazolo[1,5 a]pyrazine]	1000 to 10000 nM	100 to 1000 nM	100 to 1000 nM	1000 to 10000 nM	
CCC(CC)n1cc(-c2nc(-c3cnn([C@@H]4CCCNC4)c3)cn3nccc23)cn1 [Example 29, (R)-4-(1-(pentan-3-yl)-1H-pyrazol-4-yl)-6-(1-(piperidin-3-yl)-1H-pyrazol-4-yl)pyrazolo[1,5-a]pyrazine]	100 to 1000 nM	10 to 100 nM	10 to 100 nM	1000 to 10000 nM	
CCC(CC)n1cc(-c2nc(-c3cnn(C[C@H]4COCCN4)c3)cn3nccc23)cn1 [Example 30, (S)-3-((4-(4-(1-(pentan-3-yl)-1H-pyrazol-4-yl)pyrazolo[1,5-a]pyrazin-6-yl)-1H-pyrazol-1-yl)methyl)morpholine]	100 to 1000 nM	10 to 100 nM	10 to 100 nM	1000 to 10000 nM	
CCC(CC)n1cc(-c2nc(-c3cnn(C4CCN(C(=O)N(C)C)CC4)c3)cn3nccc23)cn1 [Example 35, N,N-dimethyl-4-(4-(4-(1-(pentan-3-yl)-1H-pyrazol-4-yl)pyrazolo[1,5-a]pyrazin-6-yl)-1H-pyrazol-1-yl)piperidine-1-carboxamide]	100 to 1000 nM	10 to 100 nM	10 to 100 nM	1000 to 10000 nM	
CCC(CC)n1cc(-c2nc(-c3cnn(C4CN(C(=O)NC)C4)c3)cn3nccc23)cn1 [Example 39, N-methyl-3-(4-(4-(1-(pentan-3-yl)-1H-pyrazol-4-yl)pyrazolo[1,5-a]pyrazin-6-yl)-1H-pyrazol-1-yl)azetidine-1-carboxamide]	10 to 100 nM	10 to 100 nM	10 to 100 nM	1000 to 10000 nM	
CCC(CC)n1cc(-c2nc(-c3cnn(C4CN(C(=O)N(C)C)C4)c3)cn3nccc23)cn1 [Example 40, N,N-dimethyl-3-(4-(4-(1-(pentan-3-yl)-1H-pyrazol-4-yl)pyrazolo[1,5-a]pyrazin-6-yl)-1H-pyrazol-1-yl)azetidine-1-carboxamide]	100 to 1000 nM	10 to 100 nM	10 to 100 nM	1000 to 10000 nM	
CCC(CC)n1cc(-c2nc(-c3cnn(C4CN(P(=O)(N(C)C)N(C)C)C4)c3)cn3nccc23)cn1 [Example 41, Bis-N,N-dimethyl-P-(3-(4-(4-(1-(pentan-3-yl)-1H-pyrazol-4-yl)pyrazolo[1,5-a]pyrazin-6-yl)-1H-pyrazol-1-yl)azetidin-1-yl)phosphonic amide]	100 to 1000 nM	10 to 100 nM	10 to 100 nM	1000 to 10000 nM	
CCC(CC)n1cc(-c2nc(-c3cnn(C4CN(C(=O)C(C)C)C4)c3)cn3nccc23)cn1 [Example 42, 2-methyl-1-(3-(4-(4-(1-(pentan-3-yl)-1H-pyrazol-4-yl)pyrazolo[1,5-a]pyrazin-6-yl)-1H-pyrazol-1-yl)azetidin-1-yl)propan-1-one]	1000 to 10000 nM	10 to 100 nM	10 to 100 nM	1000 to 10000 nM	
CCC(CC)n1cc(-c2nc(-c3cnn(C4CN(C(=O)C5CC5)C4)c3)cn3nccc23)cn1 [Example 43, cyclopropyl(3-(4-(4-(1-(pentan-3-yl)-1H-pyrazol-4-yl)pyrazolo[1,5-a]pyrazin-6-yl)-1H-pyrazol-1-yl)azetidin-l-yl)methanone]	1000 to 10000 nM	10 to 100 nM	10 to 100 nM	1000 to 10000 nM	
CCC(C(=O)O)n1cc(-c2nc(-c3cnn(C)c3)cn3nccc23)cn1 (stereo not drawn) [Example 44, 2-(4-(6-(1-methyl-1H-pyrazol-4-yl)pyrazolo[1,5-a]pyrazin-4-yl)-1H-pyrazol-1-yl)butanoic acid]		1000 to 10000 nM	10 to 100 nM	1000 to 10000 nM	1000 to 10000 nM
CCC(CO)n1cc(-c2nc(-c3cnn(C)c3)cn3nccc23)cn1 (stereo not drawn) [Example 45, 2-(4-(6-(1-methyl-1H-pyrazol-4-yl)pyrazolo[1,5-a]pyrazin-4-yl)-1H-pyrazol-1-yl)butan-1-ol]	1000 to 10000 nM	1000 to 10000 nM	1000 to 10000 nM	1000 to 10000 nM	
CCC(CCO)n1cc(-c2nc(-c3cnn(C)c3)cn3nccc23)cn1 (stereo not drawn) [Example 47, 3-(4-(6-(1-methyl-1H-pyrazol-4-yl)pyrazolo[1,5-a]pyrazin-4-yl)-1H-pyrazol-1-yl)pentan-1-ol]	1000 to 10000 nM	1000 to 10000 nM	1000 to 10000 nM	1000 to 10000 nM	
Cn1cc(-c2cn3nccc3c(-c3cnn(C4(C)CCCC4)c3)n2)cn1 [Example 49, 6-(1-methyl-1H-pyrazol-4-yl)-4-(1-(1-methylcyclopentyl)-1H-pyrazol-4-yl)pyrazolo[1,5-a]pyrazine]	1000 to 10000 nM	1000 to 10000 nM	100 to 1000 nM	1000 to 10000 nM	
